Measurements reported in ChEMBL document CHEMBL3272007, “Antiarrhythmics. 2. Synthesis and antiarrhythmic activity of N-(piperidylalkyl)trifluoroethoxybenzamides” (1977).

Test system: Mus musculus
Assay: Antiarrhythmic activity in po dosed Swiss-Webster mouse assessed as protection against chloroform-induced ventricular fibrillation administered in 4% acacia
Format: functional
Conditions: Heart

Row | Compound | ED50 [µmol/kg]
1 | O=C(NCC1CCCCN1)c1ccccc1OCC(F)(F)F (centres undefined) | 283
2 | O=C(NCC1CCCCN1)c1cccc(OCC(F)(F)F)c1 (centres undefined) | 76
3 | O=C(NCC1CCCCN1)c1ccc(OCC(F)(F)F)cc1 (centres undefined) | 190
4 | O=C(NCC1CCCCN1)c1cccc(OCC(F)(F)F)c1OCC(F)(F)F (centres undefined) | 149
5 | O=C(NCC1CCCCN1)c1ccc(OCC(F)(F)F)cc1OCC(F)(F)F (centres undefined) | 244
6 | O=C(NCC1CCCCN1)c1c(OCC(F)(F)F)cccc1OCC(F)(F)F (centres undefined) | 271
7 | O=C(NCC1CCCCN1)c1ccc(OCC(F)(F)F)c(OCC(F)(F)F)c1 (centres undefined) | 277
8 | O=C(NCC1CCCCN1)c1cc(OCC(F)(F)F)cc(OCC(F)(F)F)c1 (centres undefined) | 388
9 | O=C(NCC1CCCCN1)c1c(OCC(F)(F)F)cc(OCC(F)(F)F)cc1OCC(F)(F)F (centres undefined) | 95
10 | Cc1ccc(OCC(F)(F)F)c(C(=O)NCC2CCCCN2)c1 (centres undefined) | > 600
11 | O=C(NCC1CCCCN1)c1cc(Cl)ccc1OCC(F)(F)F (centres undefined) | 230
12 | O=C(NCC1CCCCN1)c1cc(F)ccc1OCC(F)(F)F (centres undefined) | 270
13 | CC1CCCC(CNC(=O)c2cc(OCC(F)(F)F)ccc2OCC(F)(F)F)N1 (centres undefined) | 22
14 | CC(NC(=O)c1cc(OCC(F)(F)F)ccc1OCC(F)(F)F)C1CCCCN1 (centres undefined) | 19
15 | O=C(NC1CCCNC1)c1cc(OCC(F)(F)F)ccc1OCC(F)(F)F (centres undefined) | 57
16 | O=C(NCC1CCCNC1)c1cc(OCC(F)(F)F)ccc1OCC(F)(F)F (centres undefined) | 82
17 | O=C(NC1CCNCC1)c1cc(OCC(F)(F)F)ccc1OCC(F)(F)F | 144
18 | O=C(NCC1CCNCC1)c1cc(OCC(F)(F)F)ccc1OCC(F)(F)F | 149
19 | CN1CCCCC1CNC(=O)c1cc(OCC(F)(F)F)ccc1OCC(F)(F)F (centres undefined) | 44
20 | CCN1CCCCC1CNC(=O)c1cc(OCC(F)(F)F)ccc1OCC(F)(F)F (centres undefined) | 102

Row | Compound | ED50 [µmol/kg]
21 | CCN(CC1CCCN1C)C(=O)c1cc(OCC(F)(F)F)ccc1OCC(F)(F)F (centres undefined) | 29
22 | CCN1CCCC1CNC(=O)c1cc(OCC(F)(F)F)ccc1OCC(F)(F)F (centres undefined) | 70
23 | CC[N+]1(C)CCCCC1CNC(=O)c1cc(OCC(F)(F)F)ccc1OCC(F)(F)F (centres undefined) | > 380
24 | C[N+]1(C)CCCCC1CNC(=O)c1cc(OCC(F)(F)F)ccc1OCC(F)(F)F (centres undefined) | > 395
25 | O=CN1CCCCC1CNC(=O)c1cc(OCC(F)(F)F)ccc1OCC(F)(F)F (centres undefined) | > 510
26 | O=C(NCC1CCc2ccccc2N1)c1cc(OCC(F)(F)F)ccc1OCC(F)(F)F (centres undefined) | > 450
27 | O=C(NCC1CCC2CCCCC2N1)c1cc(OCC(F)(F)F)ccc1OCC(F)(F)F (centres undefined) | 27
28 | O=C(NCC1NCCc2ccccc21)c1cc(OCC(F)(F)F)ccc1OCC(F)(F)F (centres undefined) | 380
29 | CCCCN(CC1CCCCN1)C(=O)c1cc(OCC(F)(F)F)ccc1OCC(F)(F)F (centres undefined) | 32
30 | CN(CC1CCCCN1)C(=O)c1cc(OCC(F)(F)F)ccc1OCC(F)(F)F (centres undefined) | 24
31 | CC1CCCC(CN(C)C(=O)c2cc(OCC(F)(F)F)ccc2OCC(F)(F)F)N1 (centres undefined) | 9
32 | CCN(CC1CCCCN1)C(=O)c1cc(OCC(F)(F)F)ccc1OCC(F)(F)F (centres undefined) | < 2
33 | O=C(c1cc(OCC(F)(F)F)ccc1OCC(F)(F)F)N(CC1CCCCN1)C1CCCCC1 (centres undefined) | 36
34 | CC(C)(C)N(CC1CCCCN1)C(=O)c1cc(OCC(F)(F)F)ccc1OCC(F)(F)F (centres undefined) | 17
35 | O=C(c1cc(OCC(F)(F)F)ccc1OCC(F)(F)F)N1CCN2CCCCC2C1 (centres undefined) | > 510
36 | O=C(NCC1CCCCN1)c1cc(OCC(F)(F)F)ccc1OCC(F)(F)F (centres undefined) [FLECAINIDE ACETATE] | 48
37 | CCN(CC)CC(=O)Nc1c(C)cccc1C [LIDOCAINE] | 495
38 | CCN(CC)CCNC(=O)c1ccc(N)cc1 [PROCAINAMIDE] | 1030
39 | C=C[C@H]1CN2CC[C@H]1C[C@@H]2[C@@H](O)c1ccnc2ccc(OC)cc12 [QUINIDINE] | 217
